Test results taken from ChEMBL document CHEMBL1143524, “Anti-tumor abietane diterpenes from the cones of Sequoia sempervirens” (2005).
Values after ≈ are worked out from the molar mass of the structure shown.

Assays:
Format in all cases: functional
[1] = tested on: HCT-116; assay: Growth inhibitory activity against human HCT116 colon tumor cell line
[2] = tested on: MDA-MB-231; assay: Growth inhibitory activity against human MDA-MB-231 breast tumor cell line
[3] = tested on: NCI-H23; assay: Growth inhibitory activity against human NCI-H23 lung tumor cell line
[4] = tested on: A549; assay: Inhibitory activity against human A549 lung tumor cell proliferation
[5] = tested on: SW-620; assay: Growth inhibitory activity against human SW620 colon tumor cell line
[6] = species: Rattus norvegicus; assay: Growth inhibitory activity against H-ras transformed rat 2 tumor cell line; conditions: Rat2

Row | SMILES | GI50 [1] [µg/mL] | GI50 [2] [µg/mL] | GI50 [3] [µg/mL] | GI50 [4] [µg/mL] | GI50 [5] [µg/mL] | GI50 [6] [µg/mL]
1 | CC(C)c1cc2c(cc1O)[C@@]1(C)CCCC(C)(C)[C@@H]1C(O)C2=O (some centres not stated) | 2.52 (≈ 7.96 µM) | 3.64 (≈ 11.5 µM) | 2.21 (≈ 6.98 µM) | 1.42 (≈ 4.49 µM) | 3.98 (≈ 12.6 µM) | 3.5 (≈ 11.1 µM)
2 | CC(C)c1cc2c(cc1O)[C@@]1(C)CCC[C@@](C)(CO)[C@@H]1CC2 [18-HYDROXYFERRUGINOL] | < 50 | < 50 | < 50 | < 50 | < 50 | 
3 | CC(C)c1cc2c(cc1O)[C@@]1(C)CCCC(C)(C)[C@@H]1CC2 [FERRUGINOL] | < 50 | < 50 | < 50 | < 50 | < 50 | 
4 | CC(C)c1cc2c(cc1O)[C@@]1(CO)CCCC(C)(C)[C@@H]1CC2 [PISIFEROL] | 4.34 (≈ 14.3 µM) | 8.34 (≈ 27.6 µM) | 2.8 (≈ 9.26 µM) | 2.9 (≈ 9.59 µM) | 8.22 (≈ 27.2 µM) | 2.3 (≈ 7.6 µM)
5 | CC(C)c1cc2c(cc1O)[C@@]1(C)CCCC(C)(C)[C@@H]1CC2=O [SUGIOL] | < 50 | < 50 | < 50 | < 50 | < 50 | 
